15 molecules from patent US11040031B2, “Pyrazole derivatives as MALT1 inhibitors” (Janssen Pharmaceutica NV, priority 2018, dated 2021) can be followed below.

Experiment [1] has as its system Secretion of IL10 by TMD8 ABC-DLBCL cells. As to the kind of experiment: Human IL10 Mesoscale assay (TMD-8). The experiment is classed as cell-based. Conditions: read-out: Human IL10 Mesoscale assay (TMD-8). On the procedure:
NFKB signaling regulates the secretion of multiple cytokines, including IL6 and IL10. Secretion of the cytokines IL6 and IL10 by TMD8 or OCI-LY3 ABC-DLBCL cells was measured using a mesoscale assay.
Cell passage number should not exceed 30. Cells should be kept between 0.5-2.5 million cells per mL during culturing and cells should be supplemented every 2-3 days with fresh 50 µM beta-mercaptoenthanol. No beta-mercaptoethanol was used during the mesoscale assay.
DMSO control wells were used to determine the maximum signal (High Control (HC)). […] Compounds and cells were incubated for 24 h at 37° C. and 5% CO2 (assay volume is 150 μL). After 24 h of incubation 50 μL of the supernatant was transferred to a MSD plate (V-Plex Proinflammation Panel 1 (human) kit, Mesoscale (MSD)) and incubated for 2 h with vigorous shaking (600 rpm) at room temperature. Following incubation, plates were washed 3× with PBS+0.05% Tween-20 and 25 μL detection antibody solution (IL6 & IL10 antibodies in diluent 3 (MSD)) was added per well followed by 2 h of incubation with vigorous shaking (600 rpm) at room temperature. After 3× washes with PBS+0.05% Tween-20, plates were incubated with 150 μL 2× Read Buffer T and read on SECTOR imager.

Experiment [2] has as its system OCI-Ly3 ABC-DLBCL cell line. As to the kind of experiment: 4-day proliferation assay OCI-Ly3. In kind it is cell-based. Conditions: Homo sapiens, read-out: Anti-proliferation: OCI-LY-3 IC50. The protocol: To assess anti-proliferative effects, MALT1 inhibitor test compounds were tested in 4-day proliferation assays using three different DLBCL cell lines.
Cells should be kept between 0.5-2.5 million cells per mL during culturing and cells should be supplemented every 2-3 days with fresh 50 μM beta-mercaptoenthanol. No beta-mercaptoethanol is used during the proliferation assay. OCI-Ly7 cells were propagated in IMDM (ThermoFisher) supplemented with 10% fetal bovine serum (HyClone), 2 mM L-glutamine (Sigma Aldrich) and 50 μg/mL Gentamycin. Cell passage numbers should not exceed 30.
10,000 TMD8, 10,000 OCI-Ly3 or 2,000 OCI-Ly7 cells were seeded in 100 μL media per well and incubated for 4 days at 37° C. and 5% CO2. Cell plating numbers were chosen based on growth curves to ensure linear cell growth. After 4 days of incubation 50 μl CellTiterGLO reagent (Promega) were added to each well and luminescence was measured on the Envision after 10 min of incubation at room temperature.

Experiment [3] concerns the target T1, full-length MALT1 protein (Strep-MALT1(1-824)-His) (Homo sapiens, UniProt Q9UDY8).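 Further: fluorogenic LRSR-AMC substrate cleavage by MALT1, 50 min compound preincubation then 4 h reaction at RT, 11-point dilution from 30 µM, scaled between enzyme-free and untreated enzyme controls.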
T1 sequence (Q9UDY8 1-824): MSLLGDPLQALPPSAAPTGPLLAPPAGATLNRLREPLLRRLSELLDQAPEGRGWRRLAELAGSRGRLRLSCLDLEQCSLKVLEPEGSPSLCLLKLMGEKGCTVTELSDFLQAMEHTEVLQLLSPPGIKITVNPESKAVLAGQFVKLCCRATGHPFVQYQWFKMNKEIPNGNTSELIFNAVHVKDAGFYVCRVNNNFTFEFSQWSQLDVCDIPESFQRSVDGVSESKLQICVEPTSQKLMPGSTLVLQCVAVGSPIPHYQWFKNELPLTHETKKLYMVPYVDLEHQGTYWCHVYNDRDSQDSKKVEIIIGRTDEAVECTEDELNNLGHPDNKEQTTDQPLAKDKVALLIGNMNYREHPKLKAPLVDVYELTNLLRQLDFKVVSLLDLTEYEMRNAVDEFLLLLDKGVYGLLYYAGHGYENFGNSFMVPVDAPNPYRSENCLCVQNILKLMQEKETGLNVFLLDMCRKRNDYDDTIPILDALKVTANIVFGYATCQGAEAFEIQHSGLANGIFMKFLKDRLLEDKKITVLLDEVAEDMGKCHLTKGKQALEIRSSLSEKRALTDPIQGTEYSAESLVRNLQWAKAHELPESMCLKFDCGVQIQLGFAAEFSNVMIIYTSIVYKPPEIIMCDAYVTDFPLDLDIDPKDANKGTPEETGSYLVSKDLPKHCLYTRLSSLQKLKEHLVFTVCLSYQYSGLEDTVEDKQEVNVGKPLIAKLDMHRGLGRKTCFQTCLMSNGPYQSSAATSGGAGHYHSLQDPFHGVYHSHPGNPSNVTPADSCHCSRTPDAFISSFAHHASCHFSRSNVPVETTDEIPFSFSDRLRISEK
As to the kind of experiment: biochemical.

The test system of experiment [4] is Secretion of IL10 by OCI-LY3 ABC-DLBCL cells. As to the kind of experiment: Human IL10 Mesoscale assay (OCI-LY3). As to conditions: read-out: Human IL10 Mesoscale assay (OCI-LY3). The experiment is classed as cell-based. The gist of the method:
(§1)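 TMD8 or OCI-LY3 ABC-DLBCL cells incubated with compound 24 h at 37° C without beta-mercaptoethanol. Secreted IL6 and IL10 in supernatant quantified by MSD electrochemiluminescence immunoassay; DMSO wells define maximum signal.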

Experiment [5] deals with Secretion of IL6 by OCI-LY3 ABC-DLBCL cells. As to the kind of experiment: Human IL6 Mesoscale assay (OCI-LY3). In kind it is cell-based. Conditions: read-out: Human IL6 Mesoscale assay (OCI-LY3). The gist of the method: as §1
Where [6] appears, read: TMD8 cells, 24 h incubation, supernatant, MSD V-Plex.
[7] abbreviates: 96 h, 10,000 OCI-Ly3 cells per well, 4 days, CellTiterGLO.
The mark [8] stands for this setting: OCI-LY3 cells, 24 h incubation, supernatant, MSD V-Plex.

Each structure is given as a SMILES string. pIC50: −log10 of the molar value. Where two headings read alike, the source gives them in different places.

Take `Cc1cccnc1-n1ncc(C(=O)Nc2cnc(-n3nccn3)c(Cl)c2)c1C(F)(F)F` [Cpd 3, N-(5-Chloro-6-(2H-1,2,3-triazol-2-yl)pyridin-3-yl)-1-(3-methylpyridin-2-yl)-5-(trifluoromethyl)-1H-pyrazole-4-carboxamide]: the pIC50 was 6.08 in experiment [1] (setting [6]), 5.61 in experiment [2] (setting [7]) and 6.55 in experiment [3].

For the molecule `O=C(Nc1cnc(-n2nccn2)c(Cl)c1)c1cnn(-c2ccncc2)c1C(F)(F)F` [Cpd 4, N-(5-Chloro-6-(2H-1,2,3-triazol-2-yl)pyridin-3-yl)-1-(pyridin-4-yl)-5-(trifluoromethyl)-1H-pyrazole-4-carboxamide], the pIC50 is 6.03 in experiment [1] (setting [6]), 5.98 in experiment [2] (setting [7]) and 6.55 in experiment [3].

For the molecule `O=C(Nc1cnc(-n2nccn2)c(Cl)c1)c1cnn(-c2ccc(F)cc2)c1C(F)(F)F` [Cpd 18, N-(5-chloro-6-(2H-1,2,3-triazol-2-yl)pyridin-3-yl)-1-(4-fluorophenyl)-5-(trifluoromethyl)-1H-pyrazole-4-carboxamide], the pIC50 was 6.94 in experiment [1] (TMD8, 24 h); 5.19 in experiment [2] (OCI-Ly3, 96 h); 6.82 in experiment [3].

For `N#Cc1ccc(-n2ncc(C(=O)Nc3cnc(-n4nccn4)c(Cl)c3)c2C(F)(F)F)cc1` [Cpd 19, N-(5-chloro-6-(2H-1,2,3-triazol-2-yl)pyridin-3-yl)-1-(4-cyanophenyl)-5-(trifluoromethyl)-1H-pyrazole-4-carboxamide], the values for the pIC50 in experiment [1] (setting [6]), in experiment [2] (setting [7]) and in experiment [3] were 6.93, 5.10 and 6.88, respectively.

On to `O=C(Nc1cnc(-n2nccn2)c(Cl)c1)c1cnn(-c2cccc(F)c2)c1C(F)(F)F` [Cpd 20, N-(5-chloro-6-(2H-1,2,3-triazol-2-yl)pyridin-3-yl)-1-(3-fluorophenyl)-5-(trifluoromethyl)-1H-pyrazole-4-carboxamide], for which the pIC50 in experiment [1] (TMD8, 24 h) is 6.00; in experiment [2] (OCI-Ly3, 96 h), 4.90; in experiment [3] it was 6.25.

`Nc1nc(-n2ncc(C(=O)Nc3cnc(-n4nccn4)c(Cl)c3)c2C(F)(F)F)ccc1F` [Cpd 62, 1-(6-amino-5-fluoropyridin-2-yl)-N-(5-chloro-6-(2H-1,2,3-triazol-2-yl)pyridin-3-yl)-5-(trifluoromethyl)-1H-pyrazole-4-carboxamide]: the pIC50 in experiment [4] (setting [8]) was 6.37; in experiment [5] (setting [8]), 6.42; in experiment [2] (setting [7]), 6.04; in experiment [3] it was 7.35.

In the case of `N#Cc1cc(NC(=O)c2cnn(-c3ccc(F)c(N)n3)c2C(F)(F)F)cnc1-n1nccn1` [Cpd 63, 1-(6-amino-5-fluoropyridin-2-yl)-N-(5-cyano-6-(2H-1,2,3-triazol-2-yl)pyridin-3-yl)-5-(trifluoromethyl)-1H-pyrazole-4-carboxamide], the pIC50 in experiment [4] (setting [8]) was 7.31; in experiment [5] (setting [8]), 7.16; in experiment [2] (setting [7]), 5.60; in experiment [3], 7.62.

As for `COc1cc(F)ccc1-n1ncc(C(=O)Nc2cnc(-n3nccn3)c(Cl)c2)c1C(F)(F)F` [Cpd 81, N-(5-chloro-6-(2H-1,2,3-triazol-2-yl)pyridin-3-yl)-1-(4-fluoro-2-methoxyphenyl)-5-(trifluoromethyl)-1H-pyrazole-4-carboxamide], the pIC50 in experiment [4] (setting [8]) was 6.86; in experiment [5] (setting [8]), 6.86; in experiment [2] (setting [7]), 5.90; in experiment [3] it was 6.79.

With `N#Cc1cc(NC(=O)c2cnn(-c3c(F)cccc3Cl)c2C(F)(F)F)cnc1-n1nccn1` [Cpd 98, 1-(2-chloro-6-fluorophenyl)-N-(5-cyano-6-(2H-1,2,3-triazol-2-yl)pyridin-3-yl)-5-(trifluoromethyl)-1H-pyrazole-4-carboxamide], the pIC50 in experiment [4] (setting [8]) was 6.78; in experiment [5] (setting [8]), 6.72; in experiment [2] (setting [7]), 6.36; in experiment [3] it was 6.58.

Take `N#Cc1cc(NC(=O)c2cnn(-c3c(F)cc(F)cc3Cl)c2C(F)(F)F)cnc1-n1nccn1` [Cpd 99, 1-(2-chloro-4,6-difluorophenyl)-N-(5-cyano-6-(2H-1,2,3-triazol-2-yl)pyridin-3-yl)-5-(trifluoromethyl)-1H-pyrazole-4-carboxamide]: the pIC50 in experiment [4] (OCI-Ly3, 24 h) was 6.76; in experiment [5] (OCI-Ly3, 24 h), 6.83; in experiment [2] (OCI-Ly3, 96 h) it was 6.49; in experiment [3], 6.77.

In the case of `N#Cc1cc(NC(=O)c2cnn(-c3ccccc3C3CC3)c2C(F)(F)F)cnc1-n1nccn1` [Cpd 100, N-(5-cyano-6-(2H-1,2,3-triazol-2-yl)pyridin-3-yl)-1-(2-cyclopropylphenyl)-5-(trifluoromethyl)-1H-pyrazole-4-carboxamide], the pIC50 in experiment [4] (setting [8]) is 7.03; in experiment [5] (setting [8]) it was 6.89; in experiment [2] (setting [7]) it was 6.57; in experiment [3] it was 6.77.

Turning to `Cc1cccc(F)c1-n1ncc(C(=O)Nc2cnc(-n3nccn3)c(C#N)c2)c1C(F)(F)F` [Cpd 101, N-(5-cyano-6-(2H-1,2,3-triazol-2-yl)pyridin-3-yl)-1-(2-fluoro-6-methylphenyl)-5-(trifluoromethyl)-1H-pyrazole-4-carboxamide], the pIC50 in experiment [4] (setting [8]) was 6.92; in experiment [5] (setting [8]), 6.78; in experiment [2] (setting [7]), 6.32; in experiment [3], 6.82.

In the case of `Cc1ccc(F)cc1-n1ncc(C(=O)Nc2cnc(-n3nccn3)c(C#N)c2)c1C(F)(F)F` [Cpd 103, N-(5-cyano-6-(2H-1,2,3-triazol-2-yl)pyridin-3-yl)-1-(5-fluoro-2-methylphenyl)-5-(trifluoromethyl)-1H-pyrazole-4-carboxamide], the pIC50 in experiment [4] (OCI-Ly3, 24 h) is 6.85; in experiment [5] (OCI-Ly3, 24 h) it was 6.89; in experiment [2] (OCI-Ly3, 96 h) it was 6.56; in experiment [3], 6.83.

As for `N#Cc1cc(NC(=O)c2cnn(-c3ccc(F)cc3F)c2C(F)(F)F)cnc1-n1nccn1` [Cpd 111, N-(5-cyano-6-(2H-1,2,3-triazol-2-yl)pyridin-3-yl)-1-(2,4-difluorophenyl)-5-(trifluoromethyl)-1H-pyrazole-4-carboxamide], the pIC50 was 7.20 in experiment [4] (setting [8]), 7.15 in experiment [5] (setting [8]), 5.74 in experiment [2] (setting [7]) and 6.95 in experiment [3].

For the molecule `Cc1nc(-n2ncc(C(=O)Nc3cnc(-n4nccn4)c(C#N)c3)c2C(F)(F)F)ccc1F` [Cpd 160, N-(5-cyano-6-(2H-1,2,3-triazol-2-yl)pyridin-3-yl)-1-(5-fluoro-6-methylpyridin-2-yl)-5-(trifluoromethyl)-1H-pyrazole-4-carboxamide], the pIC50 in experiment [4] (setting [8]) was 6.34; in experiment [5] (setting [8]) it was 6.19; in experiment [2] (setting [7]), 6.31; in experiment [3], 6.54.
